Test results: US11162077B2, “Apicidin-containing composition for inducing differentiation of mesenchymal stem cells into cardiac-committed cells” (CHONNAM NATIONAL UNIVERSITY HOSPITAL, priority 2015, dated 2021)

Test system: human bone marrow-derived MSCs
Assay: Real-time PCR of cardiac-specific marker genes after MSCs are treated with HDAC inhibitors
Type: cell-based
Conditions: 24 hours, TSA 0.5 μM, VPA 3 mM, AC 1 and 3 μM, vs vehicle, FIG. 1
Description: First, MSCs prepared in Example 1 were cultured for one day in a 6-well culture plate containing HIGH glucose/DMEM (4 mM L-glutamine, 4500 mg/L glucose, sodium pyruvate, 10% FBS, 100 U/ml penicillin, 100 μg/ml streptomycin), and then treated with TSA (0.5 μM), VPA (3 mM), and AC (1 and 3 μM) for 24 hours.
Afterward, the cell culture medium was removed from each sample, washed with PBS once, and homogenized with TRIzol for 10 minutes at room temperature, followed by centrifugation after the addition of chloroform. A supernatant obtained by centrifugation was harvested to purify total RNA, and cDNA was synthesized using a reverse transcriptase (MMLV) to be used as a template, followed by real-time PCR performed using the QuantiTect SYBR Green PCR kit. Accordingly, expression levels of the cardiac-specific marker genes (GATA4, Nkx2.5 and cTnI) were confirmed.

| SMILES | mRNA expression of GATA4 | mRNA expression of Nkx2.5 | mRNA expression of cTnI |
| --- | --- | --- | --- |
| CC(/C=C/C(=O)NO)=C\[C@@H](C)C(=O)c1ccc(N(C)C)cc1 [TSA, trichostatin A] | no specific effect | no specific effect | had significance |
| CCCC(CCC)C(=O)O [VPA, valproic acid] | promoted | – | promoted |
